# US20230041859A1, “USE OF TERPENOIDS IN THE TREATMENT OR PREVENTION OF FIBROTIC DISEASES” (Arjil Biotech Holding Company Limited, priority 2021, published 2023)
# “And” between values parts separate entries of the source, which are not always exact repeats. Equal entries are not always repeated.
# Columns and labels:
# [1] = test system: cisplatin-induced renal injury; test: Mice model of cisplatin-induced renal injury: serum creatinine (CRE) and BUN; format: in vivo; conditions: compounds, dose not given, daily for 7 days; p<0.001 vs cisplatin group
# Experimental: Determination of biochemical parameters Serum creatinine and serum urea are assessed using colorimetric kits according to manufacturer's instructions. Kits of the former markers are purchased from (HUMAN Diagnostics Worldwide, Magdeburg, Germany) with a chemical analyzer (Roche Diagnostics, Cobas Mira Plus, Rotkreuz, Switzerland).
# Seven-to-eight-week-old male C57BL/6 mice are obtained from the BioLASCO Taiwan Co., Ltd. (Taipei, Taiwan). The animals are housed in Plexiglas cages at a constant temperature of 22±1° C. and a relative humidity of 55±5% on a 12 h dark-light cycle for at least 2 weeks before the experiment. Animals are provided food and water ad libitum. All experimental procedures are performed according to the guidelines of the Institutional Animal Ethics Committee, and the protocol is approved by the Committee for the Purpose of Control and Supervision of Experiments on Animals.
# Renal fibrosis is induced via multiple injections of low-dose cisplatin. Intraperitoneal injections of cisplatin (5 mg/kg/injection; P4394, Sigma-Aldrich, St Louis, Mo.) are performed at 0, 1, and 3 weeks, for a total of 3 injections. Mice are sacrificed at 6 weeks after the first dose of cisplatin (n=6). To analyze the effects of samples, mice are given daily intraperitoneal injections for 7 days, starting from 4 weeks after first dose of cisplatin, and sacrificed at […] (n=6). […]
# [2] = test system: bleomycin-induced pulmonary fibrosis; test: Bleomycin-induced pulmonary fibrosis in mice: body weight, lung weight, lung index; format: in vivo; conditions: for Pulmonary index: lung weight/body weight×100
# Experimental: Specific pathogen-free ICR mice (males) (body weights 18-22 g) were purchased from the BioLASCO Taiwan Co., Ltd. (Taipei, Taiwan). The animals were housed in Plexiglas cages at a constant temperature of 22±1° C. and a relative humidity of 55±5% on a 12 h dark-light cycle for at least 2 weeks before the experiment. Animals were provided food and water ad libitum. All experimental procedures were performed according to the guidelines of the Institutional Animal Ethics Committee, and the protocol was approved by the Committee for the Purpose of Control and Supervision of Experiments on Animals.
# (§1) Mice were divided into fifth groups with 5 animals per group according to body weight: control group, BLM group, BLM+DEX group (7.5 mg/kg), BLM+ACH dosage group (50 mg/kg), and BLM+ACM dosage group (25 mg/kg), BLM+ACH dosage group (50 mg/kg), and BLM+ACM dosage group (25 mg/kg) BLM+AH dosage group (50 mg/kg), and BLM+AM dosage group (25 mg/kg) BLM+BH dosage group (50 mg/kg), and BLM+BM dosage group (25 mg/kg) BLM+CH dosage group (50 mg/kg), and BLM+CM dosage group (25 mg/kg) BLM+DH dosage group (50 mg/kg), and BLM+DM dosage group (25 mg/kg) BLM+EH dosage group (50 mg/kg), and BLM+EM dosage group (25 mg/kg) BLM. Pulmonary fibrosis (PF) was established in mice via a single intratracheal administration of BLM at 7.5 mg/kg mg/kg body weight. Different doses of samples were intragastrically administered daily for 21 days after BLM injury, and DEX was used as the positive control. Control and model groups received an equal volume of vehicle (0.9% NaCl) using the same schedule and route of administration.
# Mouse body weights were recorded daily. Mice were sacrificed on the 21th day using excess chloral hydrate hydrochloride anesthesia. Blood was obtained for ELISA analyses, and whole lungs were removed and weighed. The right lungs were fixed in 10% formalin, dehydrated, and embedded in paraffin. The left lungs were used to determine hydroxyproline. The pulmonary coefficient was calculated using the following equation: lung weight/body weight×100% […]
# At the end point of the entire experiment, the animal's body weight and lung weight were recorded.
# HepG2 cells = test: Oleic acid-induced steatosis in HepG2 cells (Oil Red O); format: cell-based, human; conditions: 6 h pre-treatment, then 0.5 mM OA for 24 h, OD 510 nm, at noncytotoxic concentration
# Experimental: Oleic acid (OA) induced steatosis in HepG2 cells and may consider an in vitro model for human fatty liver disease. HepG2 cells were treated with different concentrations of oleic acid (OA) to induce steatosis. Intracellular lipid was stained by Oil Red O (ORO), and quantified by colorimetric assay. 0.5 mM OA was chosen for further studies (FIGS. 37 and 38). HepG2 cells were treated with test compounds ([…]) and incubated for 48 h (FIG. 39). HepG2 cells were seeded in 24-well plates and deprived from FBS for 24 h. These cells were then treated with different concentrations of test compounds for 6 h before induced with 0.5 mM OA for 24 h. Cells were gently washed with PBS and fixed using paraformaldehyde at RT, then stained with Oil Red (ORO) solution for 30 min at RT. ORO stain was extracted using pure isopropanol and the optical density was detected at 510 nm (FIG. 40).
# [3] = test system: atherosclerosis and liver fibrosis in hypercholesterolemic rabbit; test: Hypercholesterolemic rabbit model (0.5% cholesterol chow), liver histology scores; format: in vivo; conditions: 10 mg/kg in 0.5% cholesterol chow; individual liver slides, 12-week study
# Experimental: 2 to 3 kg male, New Zealand White rabbits are individually caged and housed in temperature and humidity-controlled rooms. Light-dark cycles are 12 h each. After several days of acclimation, the animals are sequentially assigned to six feeding groups: standard rabbit chow, standard rabbit chow containing 0.5% cholesterol, standard rabbit chow containing both 0.5% cholesterol and 10 mg/kg Lovastatin, standard rabbit chow containing both 0.5% cholesterol and 1% ARH003, standard rabbit chow containing both 0.5% cholesterol and 1% ARH004, standard rabbit chow containing both 0.5% cholesterol and 10 mg/kg AR101-DS2. Except standard rabbit chow, others groups are given standard rabbit chow containing 0.5% cholesterol for 4 weeks (see FIGS. 14-15). The daily feeding amount for each rabbit is 50 g/kg body weight per day. Diets are administered for 8 weeks, after the animals had adjusted to their new environment. At the beginning and end of the 12 weeks study, the rabbits are anesthetized by an intramuscular injection of Zoletil 50 (1 mL/kg) (Virbac Ltd., France), and blood samples are harvested. Finally, the aortas (from aortic arch to the bifurcation of the iliac arteries) and whole livers are collected from the rabbits after they are sacrificed for further histopathological analyses.
# (ND) standard rabbit chow, n=5; (HF) standard rabbit chow containing 0.5% cholesterol, n=6; (L) standard rabbit chow containing both 0.5% cholesterol and 10 mg/kg Lovastatin, n=4; (AR003) standard rabbit chow containing both 0.5% cholesterol and 1% ARH003, n=5; (AR004) standard rabbit chow containing both 0.5% cholesterol and 1% ARH004, n=5; (AR101-DS2) standard rabbit chow containing both 0.5% cholesterol and 10 mg/kg AR101-DS2, n=5; The daily feeding amount for each rabbit is 50 g/kg body weight per day.
# The rabbit liver tissues (shown in FIG. 29) are perfused with normal saline and fixed in 10% (v/v) formalin-neutralized solution (J.T. Baker, Inc., USA) for 24 hr. […] Briefly, the slices are washed with pure water for 1 min to remove the OCT compound, washed with 50% (v/v) ethanol for 30 sec, and then stained with 2% (w/v) Sudan IV for 1 hr. After further washing with 50% (v/v) ethanol and pure water for 2 min, the slices are counterstained with hematoxylin. Photographs shown in FIG. 30 are acquired using a microscope equipped with a 10-fold magnification objective and quantified on an Alpha Imager 2200 documentation system (Alpha Innotech, USA). […]
# [4] = test system: bleomycin-induced pulmonary fibrosis; test: Bleomycin-induced pulmonary fibrosis: hydroxyproline content in lung tissue; format: in vivo, mice; conditions: 50 mg/kg (high-dose groups); p<0.001
# Experimental: as §1
# (§2) 1. Group I: control; 2. Group II: mice received single intraperitoneal injection of BLM (7.5 mg/kg BW) 3. Group III: single dose (ACH, 0.5 g/kg) 4. Group IV: Single dose (ACM, 1.0 g/kg) 5. […] Group VII: purified AR101-DS2 (50 mg/kg) 8. Group VIII: purified AR101-DS2 (25 mg/kg) 7. Group VII: purified AR101-DS4 (50 mg/kg) 8. Group VIII: purified AR101-DS4 (25 mg/kg) 7. […] Group VII: purified ARH013-RA1 (50 mg/kg) 8. Group VIII: purified ARH013-RA1 (25 mg/kg)
# [5] = test system: TNF-α, IL-1β, IL-6 and TGF-β; test: Bleomycin-induced pulmonary fibrosis: pro-inflammatory cytokines (ELISA); format: in vivo, mice; conditions: 50 mg/kg (high-dose groups); serum (FIG. 35 legend: BALF); p<0.001
# Experimental: as §1
# 1. Group I: control; 2. […]
# The serum concentration of the pro-inflammatory cytokines (i.e. tumor necrosis factor-α (TNF-α), interleukin-6 (IL-6), and IL-1β) in serum were assessed with relevant enzyme-linked immunosorbent assay (ELISA) kits (Biosource International Inc., Sunnyvale, Calif., USA), based on the manufacturer's instructions. […]
# MPO = test: Bleomycin-induced pulmonary fibrosis: lung myeloperoxidase (MPO) assay; format: in vivo, mice; conditions: 50 mg/kg (high-dose groups); vs BLM group p<0.001
# Experimental: as §1, §2
# The lung tissues were homogenized and the MPO levels were detected with the kits according to manufacturer's instruction.
# [6] = test system: bleomycin-induced pulmonary fibrosis; test: Bleomycin-induced pulmonary fibrosis: lung histopathology (H&E, Masson's trichrome); format: in vivo, mice; conditions: 50 mg/kg (high-dose groups)
# Experimental: as §1
# 1. Group I: control; 2. Group II: mice received single intraperitoneal injection of BLM (7.5 mg/kg BW) 3. Group III: single dose (ACH, 0.5 g/kg) 4. Group IV: Single dose (ACM, 1.0 g/kg) 5. […] Group VII: purified AR101-DS2 (50 mg/kg) 8. Group VIII: purified AR101-DS2 (25 mg/kg) 7. Group VII: purified AR101-DS4 (50 mg/kg) 8. Group VIII: purified AR101-DS4 (25 mg/kg) 7. […]
# [7] = 25 mg/kg intragastric daily for 21 days after BLM
# [8] = 50 mg/kg intragastric daily for 21 days after BLM
# [9] = DEX 7.5 mg/kg daily for 21 days after BLM
compound,measurement,setting,value
"C=C(CC[C@@H](C(=O)O)[C@H]1CC[C@@]2(C)C3=CC[C@H]4C(C)(C)[C@@H](O)CC[C@]4(C)C3=CC[C@]12C)C(C)C [AR101-DS4, Dehydroeburicoic Acid]",renal protection effect (normalization of serum CRE and BUN),[1],significant renal protection effect
same,Final body mass,[2]; [7],36.44 ± 0.28 g
same,Pulmonary mass,[2]; [7],0.52 ± 0.01 g
same,Pulmonary index,[2]; [7],1.54 ± 0.04
same,Final body mass,[2]; [8],37.47 ± 0.22 g
same,Pulmonary mass,[2]; [8],0.49 ± 0.01 g
same,Pulmonary index,[2]; [8],1.31 ± 0.01
same,OA-induced steatosis in HepG2 cells,HepG2 cells,inhibition
Dehydrosulphurenic acid/Sulphurenic acid [AR101-DS2],Score of Inflammation,[3],"1 (1′: mild, 2 foci per 200 field) (2×) and 2 (2′: moderate, 2-4 foci per 200 field)"
same,Score of Steatosis Grade,[3],3 (3′: >66%) (2×) and 1 (1′: 5-33 %)
same,Pulmonary index,"[2]; 50 mg/kg intragastric daily for 21 days after BLM, listed as BH",significant decrease
same,hydroxyproline (HP) content in lung tissue,[4],reduced
same,"TNF-α, IL-1β, IL-6 and TGF-β production after BLM challenge",[5],improved
same,lung MPO activities,MPO,evidently suppressed
same,necrosis and inflammatory infiltrating cells in the lung tissue,[6],significantly improved
"C[C@@H]1C[C@H]2[C@@H]3CCC4=CC(=O)C=C[C@]4(C)[C@@]3(F)[C@@H](O)C[C@]2(C)[C@@]1(O)C(=O)CO [DEX, Dexamethasone, reference compound]",Final body mass,[2]; [9],38.50 ± 0.22 g
same,Pulmonary mass,[2]; [9],0.42 ± 0.01 g
same,Pulmonary index,[2]; [9],1.09 ± 0.02
"C=C1C(=O)O[C@@H]2/C=C(\C)C[C@H]3C=C(CC/C=C(\C)CC[C@@H]12)C(=O)O3 [AR100-DS1, Ovatodiolide]",hydroxyproline (HP) content in lung tissue,[4],reduced
same,"TNF-α, IL-1β, IL-6 and TGF-β production after BLM challenge",[5],improved
same,lung MPO activities,MPO,evidently suppressed
same,necrosis and inflammatory infiltrating cells in the lung tissue,[6],significantly improved
"C=C(CC[C@@H](C)[C@H]1CC[C@H]2C3=C(C(=O)C[C@]12C)[C@@]1(C)CC[C@@H](O)[C@](C)(O)[C@@H]1C[C@@H]3O)[C@@H](C)C(=O)O (racemic) [AR101-DS1, RS-Antcin K]",Final body mass,[2]; [7],36.45 ± 0.28 g
same,Pulmonary mass,[2]; [7],0.52 ± 0.01 g
same,Final body mass,[2]; [8],39.02 ± 0.37 g
same,Pulmonary mass,[2]; [8],0.46 ± 0.01 g
same,hydroxyproline (HP) content in lung tissue,[4],reduced
same,lung MPO activities,MPO,evidently suppressed
"CC[C@H](C)C(=O)O[C@H]1C[C@@H](C)C=C2C=C[C@H](C)[C@H](CC[C@@H]3C[C@@H](O)CC(=O)O3)[C@H]21 [L, Lovastatin, reference compound]",Score of Inflammation,[3],"1 (1′: mild, 2 foci per 200 field) and 2 (2′: moderate, 2-4 foci per 200 field)"
same,Score of Steatosis Grade,[3],2 (2′: 33-66%) (2×) and 0 (0′: low- to medium-power evaluation of parenchymal involvement <5%)
